# Data published in patent US20190119284A1, “ErbB Inhibitors and Uses Thereof” (The Regents of the University of California, priority 2016, published 2019).
# Like-named read-outs stand apart in the source and are kept apart here.
# Experiments:
# [1] = target: 2YF/3wt + NRG Ba/F3 cells (HER2YF/HER3wt) (Homo sapiens, UniProt P04626, Y1005F/Y1023F/Y1112F/Y1127F/Y1139F/Y1196F/Y1221F/Y1222F/Y1248F, cells depend on it); assay: Ba/F3 proliferation assay, 2YF/3wt + NRG; format: cell-based
# Method in brief: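 Ba/F3 cells stably expressing HER3 and HER2 with 9 C-terminal Tyr→Phe mutations, selected for NRG dependence after IL-3 withdrawal. Cells were given DMSO or compound plus NRG (50 ng/mL final); proliferation normalized to DMSO, fit by log(inhibitor) vs response with variable slope.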
# HCC827 = HCC827 cell viability; format: cell-based; settings: Homo sapiens, compound at 1 nM, n in the line below, read-out: HCC827 (% viable at 1 nM)
# NCI-H1975 = NCI-H1975 cell proliferation; format: cell-based; settings: Homo sapiens, Table 8, n in the line below
# Axl+ Ba/F3 cells = target: T1, Axl+ Ba/F3 cells (Homo sapiens, UniProt P30530); assay: Ba/F3 proliferation assay, Axl+; format: cell-based
# T1 sequence (P30530 1-894): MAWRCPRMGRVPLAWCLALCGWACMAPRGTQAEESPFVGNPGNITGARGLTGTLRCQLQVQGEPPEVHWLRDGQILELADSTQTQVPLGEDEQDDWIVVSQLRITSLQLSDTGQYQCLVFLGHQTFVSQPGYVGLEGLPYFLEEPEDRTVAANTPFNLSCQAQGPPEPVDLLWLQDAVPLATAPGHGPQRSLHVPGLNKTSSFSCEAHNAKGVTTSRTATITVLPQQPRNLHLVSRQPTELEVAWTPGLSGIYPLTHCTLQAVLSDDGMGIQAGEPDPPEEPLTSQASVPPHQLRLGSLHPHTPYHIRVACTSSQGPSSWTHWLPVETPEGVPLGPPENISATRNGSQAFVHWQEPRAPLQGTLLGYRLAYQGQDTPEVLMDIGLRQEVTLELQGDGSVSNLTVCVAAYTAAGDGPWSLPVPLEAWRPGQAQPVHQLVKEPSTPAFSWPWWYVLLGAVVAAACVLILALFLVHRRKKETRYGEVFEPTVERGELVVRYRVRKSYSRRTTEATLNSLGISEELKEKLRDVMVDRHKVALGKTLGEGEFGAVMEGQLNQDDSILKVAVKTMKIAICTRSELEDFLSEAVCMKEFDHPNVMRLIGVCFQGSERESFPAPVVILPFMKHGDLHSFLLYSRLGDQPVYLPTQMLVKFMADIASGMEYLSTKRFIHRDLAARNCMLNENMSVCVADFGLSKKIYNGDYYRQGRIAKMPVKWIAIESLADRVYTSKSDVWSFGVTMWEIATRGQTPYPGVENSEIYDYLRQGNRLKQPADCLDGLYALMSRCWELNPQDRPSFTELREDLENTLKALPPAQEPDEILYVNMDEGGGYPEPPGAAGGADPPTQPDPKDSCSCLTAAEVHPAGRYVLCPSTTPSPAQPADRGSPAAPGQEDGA
# Method in brief: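 Ba/F3 cells transduced with Axl and selected for IL-3-independent growth. Cells combined with drug dilutions, and with IL-3 (10 ng/mL) or NRG (6.25 ng/mL) where needed, for 48 h at 37 °C. CellTiter-Glo read, normalized to DMSO, fitted with variable-slope log(inhibitor) regression.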
# [2] = system: parental Ba/F3 cells + IL-3; assay: Ba/F3 proliferation assay, Parental + IL-3; format: cell-based; settings: Mus musculus, BaF3; Tables 7 and 8; read-out: Ba/F3 line IC50, Parental + IL-3
# Method in brief: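 Ba/F3 cells were combined with drug dilutions plus growth factor (10 ng/mL IL-3, or 6.25 ng/mL NRG where needed) and incubated 48 h at 37 °C. Viability read by CellTiter-Glo, normalized to DMSO. Log(inhibitor)-response fit with variable slope; biological triplicates.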
# HER2+/2VE Ba/F3 line = assay: Ba/F3 proliferation assay, HER2+/2VE; format: cell-based; settings: Mus musculus, BaF3; Tables 7 and 8
# Method in brief: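 Ba/F3 cells combined with drug dilutions and growth factor as needed (10 ng/mL IL-3 or 6.25 ng/mL NRG), 48 h at 37° C. Proliferation by CellTiter-Glo, normalized to DMSO, fitted to log(inhibitor) vs response with variable slope; biological triplicates in technical triplicate.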
# A431 = A431 cell proliferation; format: cell-based; settings: Homo sapiens, A-431; Table 8; n in the line below
# [3] = Mouse Liver Microsome stability assay; format: in vitro ADME; settings: mouse liver microsomes
# [4] = system: 2YF/3wt + IL-3 Ba/F3 cells; assay: Ba/F3 proliferation assay, 2YF/3wt + IL-3; format: cell-based; settings: Mus musculus, BaF3; Table 4; ± S.D., n = 3; 48 h Cell Titer Glo
# Description: To validate the screen and test the effectiveness of counter-screening with either the same 2YF/3wt Ba/F3 cell line or the parental Ba/F3's in the presence of IL-3 to remove cytotoxic primary hits, we first tested a panel of kinase inhibitors with established mechanisms of action.
# (§1) Proliferation Assays. For adherent cell lines, cells were plated onto opaque white 96 well plates (Greiner cat #655083) and allowed to adhere overnight. The following day media was changed to fresh media that contained either DMSO or the indicated concentration of drug plus NRG (50 ng/mL final concentration) as indicated. Plates were incubated at 37° C. for 72 h and proliferation was read out using Cell Titer Glo (Promega) according to the manufacturer's protocol. For Ba/F3 cell proliferation, cells, drug dilution, and any necessary growth factors (10 ng/mL IL-3 or 6.25 ng/mL NRG) were combined in a well of a 96 well plate. Plates were incubated at 37° C. for 48 h and proliferation was read out using Cell Titer Glo according to the manufacturer's protocol. For all normalized assays, proliferation was normalized to the DMSO control condition. All graphs were plotted in GraphPad Prism 6 and fit with a non-linear regression of the log(inhibitor) vs response with a variable slope where shown. All graphs are averages (+/−standard deviation) of biological triplicates each performed in technical triplicate unless otherwise noted. If only one biological replicate was performed standard deviations were derived from the technical replicates.
# [5] = system: HER2YF/HER3E928G (2YF/3EG) Ba/F3 cells; assay: Ba/F3 proliferation assay, 2YF/3EG +/- NRG; format: cell-based; settings: + NRG vs no NRG
# From the text: Consistent with the results in the HER2 overexpressing cell lines, CW-2 cells that harbor a HER3-activating mutation were equally sensitive to compound 3+/−NRG in both proliferation and signaling assays (FIGS. 6A-6B). […] To further evaluate the potential of compound 3 against HER2 mutants within a HER2/HER3 heterodimer we transduced wt HER3 containing Ba/F3 cells with reported HER2 oncogenic mutants in the HER2YF construct.
# For HER2YF/3EG Ba/F3 cells were selected according to the protocol for the HER2YF/3TM Ba/F3's with the exception that no NRG was supplemented in the media during IL-3 independent selection.
# as §1
# [6] = system: Ba/F3 cell line panel (HER2YF/HER3); assay: 48 h proliferation of the Ba/F3 cell line panel (CellTiter-Glo); format: cell-based; settings: 48 h proliferation curves
# Description: FIGS. 3A-3D. Design and execution of a high-throughput screen identifies a novel HER2/HER3 inhibitor. FIG. 3A: 2YF/3wt cells were incubated in the presence or absence of NRG for 48 h and proliferation was assessed by CellTiter-Glo (mean±SD, n=1). […] FIG. 3C: Structure and proliferation curves for hit compound 1 (also referred herein as compound 185) against the Ba/F3 cell line panel (mean±SD, n=3), FIG. 3D: Structure and proliferation curves for compound 2 (also referred to herein as compound 55A) against the panel of Ba/F3 cell lines (mean±SD, n=3).
# FIGS. 4A-4F. Compound 2 is a selective Type I inhibitor for HER2. […] FIG. 4B: Thermal stabilization of the HER3 kinase domain by either compound 2 or ATP as determined by Thermofluor (mean±SD, n=3). FIGS. 4C-4D: The crystal structure of either erlotinib (FIG. 4C) or 2 (FIG. 4D) bound to EGFR V924R. The kinase domain in complex with compound 2 has been stabilized in the active confirmation by drug binding, despite the mutation—as evidenced by the ordered extension of the activation loop and the inward positioning of the α-C helix.
# FIGS. 5A-5D. […] FIG. 5A: Chemical structure of compound 3 (also referred to herein as compound 178). FIG. 5B: Proliferation curves for compound 3 against the Ba/F3 cell line panel (mean±SD, n=3). […] FIG. 5D: The same assay in FIG. 2A was performed with compound 3 in SK-BR-3 cells.
# FIG. 10. […]
# [7] = Tables 7 and 8, read-out: Ba/F3 line IC50, HER2YF/HER3 + NRG
# [8] = Tables 7 and 8, read-out: Ba/F3 line IC50, Axl+
# 2YF/3wt + NRG Ba/F3 cells (HER2YF/HER3wt), sequence (P04626 whole entry Y1005F/Y1023F/Y1112F/Y1127F/Y1139F/Y1196F/Y1221F/Y1222F/Y1248F): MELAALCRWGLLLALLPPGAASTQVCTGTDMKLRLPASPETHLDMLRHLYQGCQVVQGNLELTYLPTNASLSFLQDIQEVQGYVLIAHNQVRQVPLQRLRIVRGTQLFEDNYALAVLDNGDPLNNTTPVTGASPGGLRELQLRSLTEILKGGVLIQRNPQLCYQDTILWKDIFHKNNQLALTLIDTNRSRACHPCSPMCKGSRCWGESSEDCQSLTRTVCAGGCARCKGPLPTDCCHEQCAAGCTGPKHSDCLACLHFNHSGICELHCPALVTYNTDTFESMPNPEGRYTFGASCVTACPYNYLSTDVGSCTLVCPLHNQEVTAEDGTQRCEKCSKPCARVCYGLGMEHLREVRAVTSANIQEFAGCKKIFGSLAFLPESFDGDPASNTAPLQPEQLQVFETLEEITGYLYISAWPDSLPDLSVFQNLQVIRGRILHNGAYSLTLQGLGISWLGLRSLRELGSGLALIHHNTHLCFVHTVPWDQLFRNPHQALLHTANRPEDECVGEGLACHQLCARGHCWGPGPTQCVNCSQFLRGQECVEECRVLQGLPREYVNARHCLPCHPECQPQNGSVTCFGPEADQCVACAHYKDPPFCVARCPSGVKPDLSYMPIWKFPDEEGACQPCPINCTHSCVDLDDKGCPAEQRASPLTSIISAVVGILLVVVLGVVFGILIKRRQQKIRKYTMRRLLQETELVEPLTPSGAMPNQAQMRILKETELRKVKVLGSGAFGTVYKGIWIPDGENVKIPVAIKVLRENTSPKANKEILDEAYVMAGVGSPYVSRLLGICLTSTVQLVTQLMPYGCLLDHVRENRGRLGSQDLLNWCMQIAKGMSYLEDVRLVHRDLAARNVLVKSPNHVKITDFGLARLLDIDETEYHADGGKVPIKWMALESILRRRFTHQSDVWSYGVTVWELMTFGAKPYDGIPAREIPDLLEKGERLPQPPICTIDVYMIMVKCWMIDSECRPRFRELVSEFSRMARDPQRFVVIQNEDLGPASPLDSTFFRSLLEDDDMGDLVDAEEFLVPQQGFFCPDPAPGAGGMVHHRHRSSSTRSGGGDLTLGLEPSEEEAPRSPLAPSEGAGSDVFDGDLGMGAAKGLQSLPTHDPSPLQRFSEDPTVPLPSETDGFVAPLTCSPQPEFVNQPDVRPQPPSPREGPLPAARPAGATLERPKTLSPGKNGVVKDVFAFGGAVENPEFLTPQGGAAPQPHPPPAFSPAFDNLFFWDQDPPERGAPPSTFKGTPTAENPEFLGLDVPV
"GI50 [1, 7] [µM]",IC50 (NCI-H1975) [µM],GI50 (Axl+ Ba/F3 cells; [8]) [µM],IC50 (HER2+/2VE Ba/F3 line) [µM],IC50 (A431) [µM],WuXi Microsomal stability (Mouse Extraction Ratio) [3],"GI50 ([1]; Table 4, ± S.D., n = 3, 48 h Cell Titer Glo, read-out: IC50, 2YF/3wt + NRG) [µM]",IC50 [4] [µM],"GI50 (Axl+ Ba/F3 cells; Table 4, ± S.D., n = 3, 48 h Cell Titer Glo, read-out: IC50, Axl) [µM]",Structure (SMILES),viability at 0.001 µM (HCC827) [%],IC50 [2] [µM],reduction of sensitivity on addition of NRG [5] [fold],level of pathway inhibition distinguished by the Ba/F3 panel [6]
0.0015,0.72 ± 0.03,0.844,0.0485,0.33 ± 0.125,0.87,,,,CN(C)c1ccc(-c2ccsc2)cc1Nc1ncnc2[nH]nc(-c3cc[nH]n3)c12 [104A],29.8 ± 2.7,1.6,,
,,,,,,0.399 ± 0.111,> 10,> 3.33,"CC(C)(O)CC(=O)NCCn1ccc2ncnc(Nc3ccc(Oc4cccc(C(F)(F)F)c4)c(Cl)c3)c21 [TAK-285, reference compound]",,,40,
,,,,,,,,,CC(=O)Nc1nc(C)c(-c2ccc(Cl)c(S(=O)(=O)NCCO)c2)s1 [PIK-93],,,,hit downstream
0.00925,1.42 ± 0.117,0.697,0.12,0.634 ± 0.188,,,,,COc1ccc(-c2ccsc2)cc1Nc1ncnc2[nH]cc(-c3cc[nH]n3)c12 [8-091],80.9 ± 24,2.59,,
0.0208,2.25 ± 0.054,1.16,0.118,0.914 ± 0.134,,,,,COc1ccc(-c2ccccc2)cc1Nc1ncnc2[nH]cc(-c3cc[nH]n3)c12 [8-089],99.9 ± 14.6,2.44,,
0.227,2.54,1.57,0.895,0.911,,,,,COc1ccc(-c2ccccn2)cc1Nc1ncnc2[nH]cc(-c3cc[nH]n3)c12 [8-090],102,2.25,,
0.0205,1.9 ± 0.134,1.2,0.232,0.762 ± 0.215,,,,,COc1ccc(-c2cccs2)cc1Nc1ncnc2[nH]cc(-c3cc[nH]n3)c12 [8-092],81.6 ± 21.1,> 3.33,,
0.0015,0.814 ± 0.059,1.56,0.0464,0.343 ± 0.169,,,,,CN(C)c1ccc(-c2ccsc2)cc1Nc1ncnc2[nH]nc(-c3ccn(C)n3)c12 [104B],25.2 ± 3.4,~2,,
